Patent publication US6639058B2, “Method of dissolving preformed β-amyloid peptide fibrils in vitro by poly-lysine” (priority 2001, dated 2003)

How the values were obtained:
[1] = target: T1, preformed βA25-35 fibrils (Homo sapiens, UniProt P05067); test: Electron microscopy analysis of the ability to dissolve preformed βA fibrils in vitro (βA25-35); assay type: biochemical; conditions: for ability to dissolve preformed βA25-35 fibrils: 10 μl tested compound mixed with 10 μl preformed fibrils, negative-staining electron microscopy immediately performed, Poly-L-Lysine 25 mg/ml, Polyethylene glycol 10 mg/ml, L-Lysine 1 M
T1 construct: 0.5 mg/ml for βA25-35 prepared in water or in PBS
Procedure: (§1) Aliquots of βA at a concentration of 1.5 mg/ml for both βA1-40 and βA1-42 and 0.5 mg/ml for βA25-35 prepared in water or in PBS, were incubated for 5 days at 37° C. At the end of the incubation period, 10 μl of βA solution were mixed with 10 μl of water for negative-staining electron microscopy analysis.
(§2) All compounds used to test the ability to dissolve preformed βA fibrils in vitro: Poly-L-Lysine, Polyethylene glycol and L-Lysine, were prepared in water and at a concentration of 25 mg/ml, 10 mg/ml and 1 M respectively. Then, 10 μl of tested compound were mixed with 10 μl of water for negative-staining electron microscopy analysis.
(§3) In order to evaluate the ability of compounds to dissolve preformed βA fibrils in vitro, 10 μl of tested compound were mixed with 10 μl of preformed βA fibrils and the negative-staining electron microscopy analysis was immediately performed.
(§4) Samples of tested compound, βA with or without tested compound were placed on carbon formar-coated 200-mesh nickel grids. The grids were stained for 5 minutes with 1% phosphotungstic acid and visualized on a Philips EM 401 electron microscope at 80 kV.

preformed βA1-40 fibrils = target: T2, preformed βA1-40 fibrils (Homo sapiens, UniProt P05067); test: Electron microscopy analysis of the ability to dissolve preformed βA fibrils in vitro (βA1-40); assay type: biochemical; conditions: data not shown
T2 construct: 1.5 mg/ml for both βA1-40 and βA1-42
Procedure: as §1, §2, §3, §4

T2 sequence (P05067 672-711): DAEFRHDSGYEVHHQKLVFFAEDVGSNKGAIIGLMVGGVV

Row | Compound | ability to dissolve preformed βA25-35 fibrils [1] | speed of efficiency in dissolving preformed βA fibrils ([1]; in vitro, electron microscopy immediately after mixing) | potential to dissolve preformed βA1-40 fibrils (preformed βA1-40 fibrils)
1 | Poly-L-Lysine, hydrobomide | completely dissolved | instantaneous | also observed
2 | Cl.NCCCC[C@H](N)C(=O)O [L-Lysine, L-Lysine, monohydrochloride, reference compound] | not effective | – | –
